{"source": "paper PMC4077696", "about": "(PLoS Biology, 2014)", "key": {"signal peptidase": {"system": "signal peptidase", "assay": "Signal peptide cleavage of SERA5s-GFP in parasites by immunoblot", "assay_type": "cell-based, Plasmodium falciparum", "description": "This protein contains a signal peptide but lacks a PEXEL and is efficiently secreted to the parasitophorous vacuole (Figure S3B).\n(§1) Trophozoites (30–34 h) expressing PfEMP3-GFP, KAHRP-GFP, or SERA5s-GFP were magnet-purified (Miltenyi Biotech), incubated with inhibitors in 400 µl total volume at 37°C for 1–5 h, treated with 0.09% saponin containing inhibitor, and washed pellets were solubilized in Laemmli's buffer, boiled for 3 min, and frozen at −20°C. Proteins were separated by SDS-PAGE, transferred to nitrocellulose and blocked in 10% skim milk/PBS-T, and probed with rat α-HA (Roche 3F10; 1∶1,000), mouse α-GFP (Roche; 1∶1,000), rabbit α-Aldolase (1∶1,000), rabbit α-HSP70 (1∶4,000), rabbit α-PfPMV (1∶1,000), or rabbit α-Hyp8 (1∶500) primary antibodies followed by horseradish peroxidase-conjugated secondary antibodies (Silenius) and detected by enhanced chemiluminescence (Amersham)."}, "PvPMV": {"target": "PvPMV (Plasmodium vivax, UniProt A5K302)", "sequence (A5K302 35-536)": "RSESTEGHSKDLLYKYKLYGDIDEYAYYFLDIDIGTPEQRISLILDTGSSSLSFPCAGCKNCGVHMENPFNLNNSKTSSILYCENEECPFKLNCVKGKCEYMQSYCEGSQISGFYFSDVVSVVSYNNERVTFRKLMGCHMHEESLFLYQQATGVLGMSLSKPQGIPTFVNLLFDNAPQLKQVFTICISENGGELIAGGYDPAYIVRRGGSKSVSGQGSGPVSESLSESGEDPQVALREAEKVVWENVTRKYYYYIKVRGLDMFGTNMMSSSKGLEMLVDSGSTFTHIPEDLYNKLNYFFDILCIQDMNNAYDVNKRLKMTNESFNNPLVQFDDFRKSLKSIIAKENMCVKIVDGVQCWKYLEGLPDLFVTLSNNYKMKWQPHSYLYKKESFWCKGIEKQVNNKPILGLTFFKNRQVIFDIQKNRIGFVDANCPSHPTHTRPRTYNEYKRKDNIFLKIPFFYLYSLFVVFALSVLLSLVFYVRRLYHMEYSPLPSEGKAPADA", "assay": "PEXEL cleavage assay with immunopurified PvPMVHA and fluorogenic KAHRP PEXEL peptide", "assay_type": "biochemical", "quoted_text": "(§5) To investigate PvPMVHA activity, we affinity purified it, as well as the PfPMVHA control, using anti-HA agarose, as previously described [13],[18].\n(§6) PMV-agarose was prepared by adding α-HA-agarose (Sapphire Bioscience) to parasite lysates, prepared by sonication in 1% Triton X-100/PBS, for 1 h before extensive washing in same [12],[13]. […] Samples were excited at 340 nm and fluorescence emission measured at 492 nm using an Envision fluorescence plate reader (Perkin-Elmer) heated to 37°C for 150 min. Samples were shaken between measurements."}, "PfPMV": {"target": "PfPMV (Plasmodium falciparum, UniProt Q8I6Z5)", "sequence (Q8I6Z5 34-590)": "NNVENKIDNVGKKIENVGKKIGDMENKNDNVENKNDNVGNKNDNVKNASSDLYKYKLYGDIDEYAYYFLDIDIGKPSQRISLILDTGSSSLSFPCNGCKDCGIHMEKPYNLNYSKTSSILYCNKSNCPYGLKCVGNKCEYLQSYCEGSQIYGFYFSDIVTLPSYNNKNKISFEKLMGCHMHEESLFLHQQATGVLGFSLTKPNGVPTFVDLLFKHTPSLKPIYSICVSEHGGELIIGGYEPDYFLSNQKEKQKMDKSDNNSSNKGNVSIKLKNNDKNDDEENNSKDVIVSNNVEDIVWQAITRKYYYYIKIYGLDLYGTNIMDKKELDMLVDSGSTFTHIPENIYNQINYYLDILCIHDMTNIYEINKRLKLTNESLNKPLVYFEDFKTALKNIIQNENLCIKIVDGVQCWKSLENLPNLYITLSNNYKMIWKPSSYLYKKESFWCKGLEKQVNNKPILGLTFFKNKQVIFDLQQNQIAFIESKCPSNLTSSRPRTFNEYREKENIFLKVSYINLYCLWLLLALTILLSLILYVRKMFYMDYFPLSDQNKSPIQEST", "assay": "PEXEL cleavage assay with immunopurified PfPMVHA and fluorogenic KAHRP PEXEL peptide", "assay_type": "biochemical", "conditions": "IC50 PfPMV, PfPMVHA", "description": "(§2) To investigate PvPMVHA activity, we affinity purified it, as well as the PfPMVHA control, using anti-HA agarose, as previously described,[18]. […] The proteins were incubated with a fluorogenic peptide of nine amino acids that contained the PEXEL sequence from knob-associated histidine-rich protein (KAHRP), and efficient processing was observed by both enzymes (Figure 1E). Cleavage of KAHRP by PfPMVHA was previously shown to occur after Leu (RTL↓) by mass spectrometry, and this position was also confirmed for PvPMVHA (Figure S2B–E). […] In contrast, no processing was observed when the PEXEL Arg and Leu residues were mutated to Ala (ATAAQ), consistent with the substrate specificity of PfPMV (Figure 1E). To verify that processing was due to HA-tagged PMV rather than other co-precipitated proteases, we expressed in P. falciparum a mutant of PvPMVHA or PfPMVHA [13], where one or both catalytic Asp residues were mutated to Ala (see Figure 1A,B). Following affinity purification, the mutant enzymes were incubated with KAHRP PEXEL peptides, but no processing was observed (Figure 1E; blue, white), confirming that the PEXEL-dependent cleavage activity observed for each protease was attributable only to HA-tagged PMV.\n(§3) Each compound was incubated with PfPMVHA in the presence of KAHRP PEXEL peptides.\n(§4) PMV-agarose was prepared by adding α-HA-agarose (Sapphire Bioscience) to parasite lysates, prepared by sonication in 1% Triton X-100/PBS, for 1 h before extensive washing in same,[13]. PEXEL cleavage assays (20 µl total volume) consisted of 0.2 µl PMV-agarose in digest buffer (25 mM Tris, 25 mM MES, pH 6.4) with 1.5 µM FRET peptide substrate (DABCYL-[…]-E-EDANS, DABCYL-[…]-E-EDANS, LifeTein; DABCYL-[…]-E-EDANS, DABCYL-[…]-E-EDANS; Mimotopes) ± inhibitor. Samples were excited at 340 nm and fluorescence emission measured at 492 nm using an Envision fluorescence plate reader (Perkin-Elmer) heated to 37°C for 150 min. Samples were shaken between measurements. For determination of the peptide cleavage position by PvPMVHA, the fluorogenic peptide (DABCYL-[…]-E-EDANS), representing the wild-type KAHRP PEXEL sequence, was incubated with and without PvPMVHA at 37°C for 48 h. Products of the incubation were detected by a molecular formula algorithm using an Agilent 6200 TOF/6500 series mass spectrometer."}, "[1]": {"system": "P. falciparum protein translation", "assay": "Global protein synthesis by radiolabeling parasite proteins after drug treatment", "assay_type": "cell-based, Plasmodium falciparum", "conditions": "for Global protein synthesis after 23 h treatment of rings: 15 µM or 50>15 µM, BFA 5 µg/ml; for Global protein synthesis after 5 h treatment of trophozoites: 15 or 50 µM, BFA 10 µg/ml, 15 min labeling", "description": "To gain further insight into the effects of 916, 024, and 025 on parasites, we assessed global protein synthesis following drug treatment by radiolabeling parasite proteins. Treatment of trophozoites with inhibitor for 5 h prior to radiolabeling had no detectable effect on translation, even at 50 µM concentrations (Figure S4A), indicating the compounds are not direct inhibitors of the translation machinery. We next assessed protein synthesis following 23 h of drug treatment of ring stage parasites (aged 1–3 h old at the initiation of treatment). […] Indeed, Giemsa smears following treatment identified a small proportion of pyknotic parasites in the population (results not shown). […] It is possible that PMV inhibition by 916 treatment has a similar but weaker effect to BFA, in that it causes the accumulation of uncleaved PEXEL precursors in the ER, perturbing ER transport, and that this negatively affects translation by an ER stress response. An alternative possibility is that translation was decreased slightly as a result of parasites dying from 916-mediated impairment of erythrocyte remodeling. Either way, the profile for 916 was different to that seen for 024 and 025, even at 50 µM, indicating the latter analogs likely kill parasites via a different mechanism to 916.\nWhole parasite proteins were radiolabeled by culturing magnet-purified trophozoites (wild-type 3D7 or expressing PfEMP3-GFP) in Met/Cys-free medium for 30 min at 37°C before addition of 800 µCi/ml ^35S-Met/Cys (Perkin/Elmer) to the medium for the indicated times. Pellets were snap frozen in ethanol/dry ice bath and stored at −80°C. For radiolabeling in the presence of PMV inhibitor, parasites were treated with 20 µM WEHI-916 for 5 h before labeling commenced. For pulse-chases, proteins were radiolabeled in the presence or absence of inhibitor, as above, before further culture in radiolabel-free, inhibitor-free complete medium for the indicated times at 37°C before snap freezing. Frozen samples were either solubilized in Laemmli's buffer (Figure S4) or solubilized in 1% Triton X-100/PBS with protease inhibitor cocktail (Roche) and PfEMP3-GFP species immunopurified with α-GFP agarose (MBL) at 4°C for 2 h (Figures 3 and S3), and proteins were resolved by SDS-PAGE, visualized by autoradiography (7-d exposures), and quantified using a GS-800 Calibrated Densitometer (Bio-Rad)."}, "[2]": {"target": "PMV in P. falciparum–infected erythrocytes (Plasmodium falciparum, UniProt Q8I6Z5)", "sequence (Q8I6Z5 whole entry, the tested form may be a part)": "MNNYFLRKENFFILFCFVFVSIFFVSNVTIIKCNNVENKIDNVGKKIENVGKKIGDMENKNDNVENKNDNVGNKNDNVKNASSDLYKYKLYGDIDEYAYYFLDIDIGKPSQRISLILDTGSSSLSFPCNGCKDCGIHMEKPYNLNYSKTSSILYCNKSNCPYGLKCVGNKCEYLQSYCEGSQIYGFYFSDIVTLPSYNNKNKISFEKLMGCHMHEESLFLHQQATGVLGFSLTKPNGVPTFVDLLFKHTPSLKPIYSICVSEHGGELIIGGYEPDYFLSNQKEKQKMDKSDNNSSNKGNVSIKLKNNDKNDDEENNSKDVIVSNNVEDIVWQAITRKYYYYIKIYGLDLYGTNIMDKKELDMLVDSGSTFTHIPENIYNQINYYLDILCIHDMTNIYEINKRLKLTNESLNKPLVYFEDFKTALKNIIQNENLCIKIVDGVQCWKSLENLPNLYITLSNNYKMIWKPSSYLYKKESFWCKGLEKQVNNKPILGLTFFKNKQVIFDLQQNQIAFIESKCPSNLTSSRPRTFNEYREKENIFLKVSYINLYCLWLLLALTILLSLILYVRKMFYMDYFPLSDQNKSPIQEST", "assay": "PEXEL processing of GFP reporters in parasites by immunoblot", "assay_type": "cell-based", "conditions": "5 h treatment, immunoblot", "description": "To assess whether 916 could inhibit PMV in P. falciparum–infected erythrocytes, parasites expressing the PEXEL protein P. falciparum erythrocyte membrane protein 3 (PfEMP3) fused to green fluorescent protein (GFP) were treated with increasing concentrations of inhibitor, and PEXEL processing was evaluated by immunoblot. […] A GFP-only band, representing degraded chimera in the food vacuole, was also observed at ∼26 kDa (Figure 3A).\nas §1"}, "[3]": {"system": "Human Foreskin Fibroblasts (HFF)", "assay": "Toxicity against Human Foreskin Fibroblasts", "assay_type": "cell-based", "conditions": "Fibroblast"}, "HEpG2 cells": {"system": "HEpG2 cells", "assay": "Toxicity against human HEpG2 cells", "assay_type": "cell-based", "conditions": "toxicity against human cell line"}, "[4]": {"system": "CC(C)C[C@H](NC(=O)[C@@H](NC(=O)[C@H](CCCNC(=N)N)NC(=O)[C@H](CCCCN)NC(=O)[C@H](CC(N)=O)NC(=O)[C@H](CCCNC(=N)N)NC(=O)c1ccc(N=Nc2ccc(N(C)C)cc2)cc1)[C@@H](C)O)C(=O)N[C@@H](C)C(=O)N[C@@H](CCC(N)=O)C(=O)N[C@@H](CCCCN)C(=O)N[C@@H](CCC(N)=O)C(=O)N[C@@H](CCC(=O)NCCNc1cccc2c(S(=O)(=O)O)cccc12)C(N)=O", "assay": "PEXEL cleavage assay with immunopurified PvPMVHA and fluorogenic KAHRP PEXEL peptide", "assay_type": "biochemical, Plasmodium vivax", "conditions": "other: Michaelis–Menten, 2 h; pH 6.4; 37.0 °C", "quoted_text": "as §5, §6"}, "[5]": {"system": "CC(C)C[C@H](NC(=O)[C@@H](NC(=O)[C@H](CCCNC(=N)N)NC(=O)[C@H](CCCCN)NC(=O)[C@H](CC(N)=O)NC(=O)[C@H](CCCNC(=N)N)NC(=O)c1ccc(N=Nc2ccc(N(C)C)cc2)cc1)[C@@H](C)O)C(=O)N[C@@H](C)C(=O)N[C@@H](CCC(N)=O)C(=O)N[C@@H](CCCCN)C(=O)N[C@@H](CCC(N)=O)C(=O)N[C@@H](CCC(=O)NCCNc1cccc2c(S(=O)(=O)O)cccc12)C(N)=O", "assay": "PEXEL cleavage assay with immunopurified PfPMVHA and fluorogenic KAHRP PEXEL peptide", "assay_type": "biochemical, Plasmodium falciparum", "conditions": "other: Michaelis–Menten, 2 h; pH 6.4; 37.0 °C", "description": "as §2, §3, §4"}}, "note": "Structures can show the parent of a compound that is named as a salt."}
{"compound": "CC(C)C[C@H](NC(=O)[C@@H](NC(=O)[C@H](CCCCN)NS(=O)(=O)Cc1ccccc1)C(C)C)[C@@H](O)CC(=O)NCCc1ccccc1", "note": "[compound 024, PhCH2SO2-Lys(NH2)-Val-Sta-NH(CH2)2Ph .TFA]", "values": [{"measurement": "Signal peptide cleavage of SERA5s-GFP, in words", "setting": "signal peptidase; 20 µM for 5 h", "result": "no defect"}, {"measurement": "Effect on PMV or signal peptidase activity in parasites, in words", "setting": "signal peptidase; concentrations up to 50 µM", "result": "no affect"}, {"measurement": "Activity against PvPMVHA, in words", "setting": "PvPMV", "result": "weak activity"}, {"measurement": "IC50", "setting": "PvPMV", "result": "> 100", "unit": "µM"}, {"measurement": "IC50", "setting": "PfPMV", "result": "> 100", "unit": "µM"}, {"measurement": "Global protein synthesis after 23 h treatment of rings", "setting": "[1]", "result": "no defect in global protein synthesis"}, {"measurement": "Global protein synthesis after 5 h treatment of trophozoites", "setting": "[1]", "result": "no defect in global protein synthesis"}, {"measurement": "PEXEL processing of KAHRP-GFP in parasites, in words", "setting": "[2]; 20 and 50 µM", "result": "no effect"}, {"measurement": "PEXEL processing of PfEMP3-GFP in parasites, in words", "setting": "[2]; up to 50 µM", "result": "no effect"}, {"measurement": "IC50", "setting": "[3]", "result": "> 100", "unit": "µM"}, {"measurement": "IC50", "setting": "HEpG2 cells", "result": "> 100", "unit": "µM"}]}
{"compound": "C[C@H]1CCC/C=C/[C@@H]2C[C@H](O)C[C@H]2[C@H](O)/C=C/C(=O)O1", "note": "[Brefeldin A, reference compound]", "values": [{"measurement": "Global protein synthesis after 23 h treatment of rings", "setting": "[1]", "result": "severely impaired translation"}, {"measurement": "Global protein synthesis after 23 h treatment of rings", "setting": "[1]; listed as BFA", "result": "severely reduced translation"}, {"measurement": "Global protein synthesis after 5 h treatment of trophozoites", "setting": "[1]", "result": "no defect in global protein synthesis"}]}
{"compound": "PvPMV (Plasmodium vivax Sal-1)", "values": [{"measurement": "Km", "setting": "[4]", "result": "9.7 (±3.0) µM"}]}
{"compound": "PfPMV (Plasmodium falciparum 3D7)", "values": [{"measurement": "Km", "setting": "[5]", "result": "11.7 (±1.8) µM"}]}
